By Kd is commonly meant the equilibrium constant for the complex coming apart. Read a high Kd as lower affinity.

For test [1], the target named is T1, Mitogen-activated protein kinase 14 (Homo sapiens, UniProt Q16539). In words: Dissociation constant at Tm against human Mitogen-activated protein kinase p38 alpha.
The target of test [2] is T1, Mitogen-activated protein kinase 14. In words: Dissociation constant at Tref against human Mitogen-activated protein kinase p38 alpha.
The target is the same in test [3]. In words: Dissociation constant fit from ITC data against human Mitogen-activated protein kinase p38 alpha (constant fit).
The target is the same in test [4]. In words: Dissociation constant at Tm against human Mitogen-activated protein kinase p38 alpha (fluorescence exchange curve).

T1 sequence (Q16539 whole entry): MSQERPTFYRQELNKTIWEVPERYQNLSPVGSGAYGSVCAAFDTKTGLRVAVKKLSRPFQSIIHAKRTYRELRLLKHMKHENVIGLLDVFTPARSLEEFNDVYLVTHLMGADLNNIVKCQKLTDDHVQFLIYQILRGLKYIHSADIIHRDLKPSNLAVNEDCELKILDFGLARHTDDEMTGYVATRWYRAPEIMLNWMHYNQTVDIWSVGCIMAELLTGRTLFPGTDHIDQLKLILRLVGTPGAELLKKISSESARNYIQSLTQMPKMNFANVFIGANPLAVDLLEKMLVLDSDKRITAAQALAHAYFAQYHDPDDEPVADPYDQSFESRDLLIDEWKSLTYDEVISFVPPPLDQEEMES

On to `O=C(Nc1ccc(OCCN2CCOCC2)c2ccccc12)Nc1ccnn1-c1ccccc1`, for which the values for the Kd in test [1], in test [2] and in test [3] were 6070 nM, 2400 nM and 1180 nM, respectively.

As for `Cn1nc(C(C)(C)C)cc1NC(=O)Nc1ccc(OCCN2CCOCC2)c2ccccc12`, the dissociation constant (Kd) was found to be 210 nM in test [1], 25.7 nM in test [2] and 10 nM in test [3].

Turning to `CC(C)c1cc(NC(=O)Nc2ccc(OCCN3CCOCC3)c3ccccc23)n(-c2ccccc2)n1`, the equilibrium dissociation constant (Kd) in test [1] came out at 62.8 nM; in test [4] it was 6 nM; in test [2], 3.4 nM.

Take `Cc1ccc(-n2nc(C(C)(C)C)cc2NC(=O)Nc2ccccc2)cc1`: the dissociation constant Kd was 177 nM in test [1], 21 nM in test [4], 16.8 nM in test [2] and 5 nM in test [3].

Consider `CC(C)(C)c1cc(NC(=O)Nc2ccc(OCCN3CCOCC3)c3ccccc23)n(-c2ccccc2)n1`, for which the results for the Kd in test [1], in test [4] and in test [2] were 5.3 nM, 0.09 nM and 0.231 nM, respectively.

For the compound `Cc1ccc(-n2nc(C(C)(C)C)cc2NC(=O)Nc2cccc3ccccc23)cc1`, the Kd in test [1] came out at 118 nM; in test [4] it was 1 nM; in test [2], 10.6 nM.

With `CC(C)(CO)c1cc(NC(=O)Nc2ccc(OCCN3CCOCC3)c3ccccc23)n(-c2ccccc2)n1`, the Kd in test [1] turned out to be 493 nM; in test [4] it was 36 nM; in test [2] it was 56.4 nM; in test [3] it was 20 nM.

Source of the values: ChEMBL document CHEMBL1145998, “Thermal denaturation: a method to rank slow binding, high-affinity P38alpha MAP kinase inhibitors” (J Med Chem, 2003).
